The values that follow come from paper PMC11458958 (iScience, 2024).

Residues, ends and D or L forms follow the SMILES beside them. *: point of attachment. Cbz = O=C(OCc1ccccc1)*

The test system of one data set is cathepsins B and L. Conditions: cited from earlier work.
Data set [1] has as its system mice with post-infarction remodeling. In kind it is in vivo, C57BL/6J mice. Conditions: 20 mg/kg daily oral.
A further data set relates to TAC mice. As to the kind of experiment: Transverse aortic constriction.
Data set [2] has as its system mice subjected to coronary occlusion and reperfusion. As to the kind of experiment: In vivo acute reperfusion injury: 45 min coronary occlusion, 24 h reperfusion. Set-up: species or system C57BL/6J mice. Conditions: 25 mg/kg i.p. 10 min before reperfusion.
Another data set relates to cathepsin L. As to the kind of experiment: Cathepsin activity in heart homogenates. Type of data set: in vivo, C57BL/6J mice. Conditions: 25 mg/kg.
Another data set has as its system cathepsins K, B, L and S. Conditions: 25 mg/kg; cited from earlier work.
[3] abbreviates: 4 weeks after TAC, 10 mg/kg daily oral from 1 to 4 weeks after TAC (3w).

On to `COCCOCCOC(=O)N[C@@H](CC(C)C)C(=O)N[C@@H](Cc1ccccc1)C(=O)C(=O)NC1CC1` [SNJ-1945], for which the cathepsin inhibition result in the data set on cathepsins B and L is “inhibit at least cathepsins B and L”.

Regarding `CC(C)[C@H](NC(=O)OCc1ccccc1)C(=O)N[C@H](C=O)Cc1ccccc1` [MDL-28170] (Cbz-Val-Phe-aldehyde), in the data set with cathepsins B and L, the cathepsin inhibition result is “inhibit at least cathepsins B and L”.

Turning to `CCOC(=O)[C@H](CCc1ccccc1)N[C@@H](C)C(=O)N1CCC[C@H]1C(=O)O` [Enalapril], in data set [1] (4 weeks of reperfusion), the EF came out at 52.6 ± 2.2%, the FS turned out to be 22.7 ± 1.3%, the IVST is reported as 0.79 ± 0.03 mm and the LVEDD was determined as 4.85 ± 0.19 mm. In data set [1] (4 weeks of reperfusion), this compound showed an LVESD of 3.75 ± 0.12 mm and an LVPWT of 0.67 ± 0.02 mm. Also, the “reduction of scar size vs. control group” value in data set [1] (28 days) is 24%. In data set [1] (28 days of reperfusion), this compound returned a mortality rate of 20%. For the same compound, in the data set on TAC mice (setting [3]), the EF is recorded as 49.5 ± 1.6^$∗ %, the FS is reported as 20.8 ± 0.8^$∗ %, the HW is on record as 151.8 ± 4.9 mg and the HW/TL was 8.68 ± 0.26^$∗ mg/mm. Moreover, in the data set on TAC mice (setting [3]), the IVST is 0.97 ± 0.03^$∗ mm, the LVEDD is recorded as 4.48 ± 0.05∗ mm, the LVESD was 3.55 ± 0.05^$∗ mm and the LVPWT is 0.78 ± 0.03^$ mm. The “EF reduction with respect to baseline” value with TAC mice (4 weeks after TAC, 10 mg/kg daily oral starting 1 week after TAC) stood at 16%. Moreover, the “capillary density (CD31 staining)” value in the data set on TAC mice (starting 1 week after TAC surgery, 10 mg/kg daily oral) was “preserved capillary density”.

Take `CCCN1CCN(c2ccc(C(=O)NC3(C(=O)NCC#N)CCCCC3)cc2)CC1` [balicatib]: the “effect on infarct size” value in data set [2] is “failed to attenuate infarct size”. For the same compound, the “cathepsin L activity in heart homogenates, reduced, compared to sham mice” value with cathepsin L is recorded as 41.2 ± 7.3%. Also, the “cathepsin inhibition at this dose” value in the data set with cathepsins K, B, L and S was “inhibits cathepsins K, B, L and S”.
